Tested on: FH-B-TPN cells
Assay: Insulin content of FH-B-TPN cells (RIA/ELISA of cell extracts)
Type: cell-based, human
Details: for Insulin content / Fold increase (insulin content): FH-B-TPN cells; for Insulin content / Effect on insulin content of FH-B-TPN cells (in words): RIA; for Fold increase (insulin content): vs CM; for Effect on insulin content of FH-B-TPN cells (in words): in CM, compared with regular medium or with Act-A alone
Method: FH cells were isolated and cultured as described (19), in Dulbecco's modified Eagle's medium containing 25 mM glucose and supplemented with 10% fetal bovine serum (FBS), 100 U/ml penicillin, 100 μg/ml streptomycin, 5 μM hydrocortisone, and 5 μg/ml insulin. A subclone of FH cells that was stably transduced with hTERT, designated FH-B-hTERT (FH-B), was cultured in the same medium, as described (20). FH-B cells transduced with the Pdx1 gene (see below), designated FH-B-TPN cells, were maintained in the same culture medium, with the exception of hydrocortisone and insulin (complete medium CM). For incubation in serum-free medium, the cells were placed in DMEM containing antibiotics, in the presence of 100 ng/ml insulin, 55 ng/ml transferrin, and 50 pg/ml selenium (ITS, Sigma). For all experiments activin A (Cytolab/PreproTech Asia, Rehovot, Israel) was added at a final concentration of 4 nM. except for those aimed at promoting differentiation of FH-B-TPN cells towards the beta-cell phenotype. There, addition of Act-A, as well as betacellulin (BTC, R&D Systems, Minneapolis, Minn.), nicotinamide (NA), exendin-4, and hepatocyte growth factor (HGF) (the last 3 compounds from Sigma-Aldrich) was at concentrations detailed herein below.
Insulin secretion from FH-B-TPN cells was measured by static incubation as previously described (2). Cells were plated in 24-well plates at 10^5 cells per well. The cells were preincubated for 1 hour in Krebs-Ringer buffer (KRB), followed by incubation for the indicated period of time in KRB containing 0.5 mM 1-isobutyl 3-methylxanthine (IBMX) and glucose at various concentrations. The cells were then extracted in acetic acid, and the amount of insulin in the buffer and cell extract was determined by radioimmunoassay (RIA) using the INSIK-5 kit (DiaSorin, Vercelli, Italy) according to the manufacturer. This assay has <20% crossreactivity with proinsulin. In addition, insulin content was determined using an ELISA kit (Diagnostic Systems Laboratories, Webster, Tex. or (Mercodia, Uppsala, Sweden), which recognizes only mature insulin. Insulin content was normalized to total cellular protein, measured by the Bio-Rad (Hercules, Calif.) Protein Assay kit. Human C-peptide in the cell extract was determined using a RIA kit (DiaSorin, Vercelli, Italy) or ELISA kit (Mercodia, Uppsala, Sweden) according to the manufacturers.

Compound	Insulin content (5 mM in CM (6 d))	Fold increase (insulin content) (5 mM in CM (6 d))	Effect on insulin content of FH-B-TPN cells (in words)	Insulin content (2-8 nM in CM (6 d))	Fold increase (insulin content) (2-8 nM in CM (6 d))
NC(=O)c1cccnc1 [NA, nicotinamide, reference compound]	122 ± 20 ng/10^6 cells	0.6	decrease		
exendin-4 [reference compound]			decrease	0 ng/10^6 cells	0
